From ChEMBL document CHEMBL1770113, “Improved synthesis of 15-deoxyspergualin analogs using the Ugi multi-component reaction” (Bioorg Med Chem Lett, 2011) come the findings set out here.

One may read the half-life as the time in which the quantity being followed falls by half. In general, MIC refers to the smallest concentration in the dilution series that meets the test's criterion for growth inhibition. High values mean weaker potency, low ones greater potency.

≈ marks a conversion by molar mass, not a printed value. A value given as a limit tells only on which side of the number the result lay.

Series [1] can be described thus: Chemical stability of the compound in aqueous buffer assessed as half life at pH 10 by thin layer chromatography. Type of series: physicochemical. The following applies: for half-life: aqueous buffer.
Series [2] in a line: Chemical stability of the compound in aqueous buffer assessed as half life at pH 8 by thin layer chromatography. Type of series: physicochemical. The following applies: for half-life: aqueous buffer.
Series [3] is described as follows: Chemical stability of the compound in aqueous buffer assessed as half life at pH 7 by thin layer chromatography. Format: physicochemical.
For another series, the system named is Escherichia coli. Put plainly: Antibacterial activity against Escherichia coli. Type of series: functional.
For a further series, the system named is Staphylococcus aureus. Briefly: Antibacterial activity against Staphylococcus aureus. Type of series: functional.
The subject of a further series is Bacillus subtilis. Briefly: Antibacterial activity against Bacillus subtilis. Type of series: functional.
The nature of series [4]: Chemical stability of the compound in aqueous buffer assessed as half life at pH 5 by thin layer chromatography. Format: physicochemical. The following applies: for half-life: aqueous buffer; for Stability: buffer.

Consider `N=C(N)NCCCCCCC(=O)NCC(=O)NCCCCNCCCN`, for which the half-life is 3 h in series [1], 260 h in series [2], 100 h in series [3] and 90 h in series [4]. For the same molecule, the MIC was more than 250 µg/mL with Escherichia coli, 10 µg/mL (≈ 26.9 µM) against Staphylococcus aureus and 10 µg/mL (≈ 26.9 µM) in the series with Bacillus subtilis.
Take `N=C(N)NCCCCCCC(=O)NC(CCc1ccccc1)C(=O)NCCCCNCCCN` (racemic): the Stability entry in series [1] (buffer) and in series [4] was “Unstable” each time. The half-life is 563 h in series [2] and 203 h in series [3]. The MIC against Escherichia coli was more than 250 µg/mL; against Staphylococcus aureus it was 50 µg/mL (≈ 105 µM); in the series with Bacillus subtilis, 50 µg/mL (≈ 105 µM).
Consider `N=C(N)NCCCCCCC(=O)NC(C(=O)NCCCCNCCCN)c1ccc(Br)cc1` (racemic), for which the figures for the half-life in series [1] and in series [3] were 420 h and 440 h, respectively. The Stability entry in series [2] (buffer) and in series [4] was “Unstable” each time. Further, the MIC is more than 250 µg/mL against Escherichia coli, 50 µg/mL (≈ 95 µM) in the series on Staphylococcus aureus and 50 µg/mL (≈ 95 µM) against Bacillus subtilis.
Regarding `COC(NC(=O)CCCCCCNC(=N)N)C(=O)NCCCCNCCCN` (racemic), the half-life was 48 h in series [1], 720 h in series [2], 190 h in series [3] and 140 h in series [4]. The MIC in the series with Escherichia coli is more than 250 µg/mL; in the series with Staphylococcus aureus, 50 µg/mL (≈ 125 µM); against Bacillus subtilis, 50 µg/mL (≈ 125 µM).
